From patent publication US20110123623A1, “RHAMNOLIPID MECHANISM” (priority 2009, published 2011)

Assays:
C. albicans = assay: Immunorestoration activity: cyclophosphamide immunosuppression and C. albicans challenge; assay type: in vivo, mouse; details: 100 mg/kg i/p days 1, 3, 5, cyclophosphamide 30 mg/kg p/o days 2, 4, 6
Experimental: Di-rhamnolipid W3CTS was administered i/p. (100 mg/kg) to groups of ICR derived male mice weighing 22±2 g on days 1, 3, and 5, with the immunosuppressant cyclophosphamide (30 mg/kg p/o.) administered on days 2, 4, and 6. One day after the last immunosuppressant dose, the mice were challenged with a suspension of C. Albicans sufficient to result in 90-100% mortality within 10 days in vehicle treated animals. Survival of 30 percent or more (≧30) of the animals was considered significant and indicated possible immunorestoration activity. Reference agent was lipopolysaccharide 0.3 mg/kg i/p.

in vivo = details: female, Swiss-Webster, mouse, iv
Experimental: (§1) Maximum tolerated doses of di-rhamnolipid W3CTS were administered intravenously in female Swiss-Webster mice.
(§2) Female Swiss-Webster mice obtained from the Houston, Tex. site Harlan Sprague Dawley, Inc were used in the study. All mice were divided into 6 groups. The vehicle and Di-rhamnolipid W3CTS were administered as an intravenous bolus, via tail vein, beginning with lowest dose level (75 mg/kg). […] In this study, the maximum tolerated dose of di-rhamnolipid W3CTS in female Swiss-Webster mice was 120 mg/kg. Three mice (LD50) of the next higher dose tested (135 /mg/kg) died immediately upon administration.

[1] = system: female Swiss-Webster mice; assay: in vivo; details: mouse
Experimental: as §1, §2

female and male mice = assay: Blood findings after one single i/v dose; assay type: in vivo, mouse; details: 75 mg/kg single i/v dose
Experimental: Blood findings in female and male mice treated i/v with one single dose of 75 mg/kg of Di-rhamnolipid W3CTS
Monocytes were increased in treated mice up to 100% after 4th day and 29th

female ICR mice = assay: Immunostimulation (cellular): oxazolone-induced delayed type hypersensitivity; assay type: in vivo, mouse; details: oxazolone-induced DTH
From the text: Immunostimulation (cellular): Oxazolone-induced delayed type hypersensitivity of female ICR mice was negative.

[2] = system: Swiss-Webster female mice; assay: TPA/pyr induced acute dermal ear inflammation (Part B); assay type: in vivo, mouse
Experimental: Effects of Di-rhamnolipid W3CTS on TPA/pyr induced acute inflammation in the ears of Swiss-Webster female mice.
The aim of this study was two-fold. In Part A the potential of a single topical application of W3CTS to cause acute cutaneous irritation (up to 24 hours) was measured in a mouse ear assay system. […] The aim of Part B was to determine the effects of a single topical administration of W3CTS on acute dermal inflammation induced by TPA/pyr, Part B was designed to differentiate the ability of Di-rhamnolipid W3CTS at concentration 1 mg/ml to prevent, inhibit or reverse induced ear inflammation.
The time of maximal reduction of inflammation was dependent on the time of treatment, with respect to induction. The effect of Di-rhamnolipid W3CTS was moderate (up to 32% decrease in inflammation) but sustained. […] Post treatment reversed established inflammation by 32% at 11 hours. […] It may be possible to increase the anti-inflammatory effect of Di-rhamnolipid W3CTS by use of a different dose formulation, or by repeated treatments.

[3] = biological target: human dopamine D2L (human recombinant) (Homo sapiens, UniProt P14416); assay: Dopamine D2L receptor binding of [3H]Spiperone; details: 100 μM in 0.5 DMSO
Experimental: At the concentration of 100 μM Di-rhamnolipid W3CTS in 0.5% DMSO, Di-rhamnolipid W3CTS inhibited 100% dopamine D1 (human recombinant) binding of [^3H] SCH23390. At the same concentration of 100 μM W3CTS in 0.5 DMSO measuring binding of [^3H]Spiperone to human dopamine D2L (human recombinant) was inhibited by 53%.

[4] = system: Guinea pig lung LTC4 synthetase; assay: Leukotriene C4 synthetase inhibition (EIA); assay type: biochemical; details: highest concentration 1,000 μM/ml; DMSO 0.5%
Experimental: Leukotriene C4 (LTC4) synthetase is involved in the formation of LTC4 from LTA4. Taken together with other assays for enzymes involved in the lipoxygenase pathway (e.g. 5-lipoxygenase, LTA4 hydrolase), a locus of action can be established for agents which inhibit the formation of leukotrienes. Guinea pig lung LTC4 synthetase was used. Test compound and/or vehicle was pre-incubated with 180 μg/ml enzyme in phosphate buffer pH 7.8 for 15 minutes at 37° C. The reaction is initiated by the addition of 2.5 μg/ml LTA4 methyl ester for another 30 minute incubation period and terminated by further addition of ice-cold methanol. Determination of the amount of LTC4 formed is read spectrophotometrically by enzyme immunoassay kit (EIA). W3CTS was screened at 1,000; 100; 10; and 1 μM/ml. Solvent was DMSO 0.5%. Sulfazine was used as a reference. Inhibition was 81% at the highest concentration of 1,000 μM/ml.

[5] = system: B-lymphocyte cells isolated from the spleen of balb/c mice; assay: Mouse B-cell proliferation (thymidine incorporation); assay type: cell-based
Experimental: T-lymphocyte cells isolated from thymus of balb/c mice weighing 17±1 g were used. Test compound and/or vehicle was incubated with the cells (4×10^6/ml) in the presence of 3 μg/ml concanavalin A (Con A) overnight. Thymidine incorporation was assessed by liquid scintillation counting. B-lymphocyte cells isolated from the spleen of balb/c mice weighing 17±1 g were used. Test compound and/or vehicle was incubated with the cells (1.5×10^6/ml) in the presence of 10 μg/ml lipopolysaccharide (LPS) in AIM-V medium pH 7.4 at 37° C., during 24 hours. [^3H]Thymidine (120 nM) was then added for an additional overnight incubation period. Thymidine incorporation was assessed by liquid scintillation counting. […] T-cells isolated from mouse thymus were inhibited at the concentration of 10 μM by 24% and in the presence of concanavalin T-cells proliferation was inhibited 43%.

Sequence of human dopamine D2L (human recombinant) (P14416 whole entry): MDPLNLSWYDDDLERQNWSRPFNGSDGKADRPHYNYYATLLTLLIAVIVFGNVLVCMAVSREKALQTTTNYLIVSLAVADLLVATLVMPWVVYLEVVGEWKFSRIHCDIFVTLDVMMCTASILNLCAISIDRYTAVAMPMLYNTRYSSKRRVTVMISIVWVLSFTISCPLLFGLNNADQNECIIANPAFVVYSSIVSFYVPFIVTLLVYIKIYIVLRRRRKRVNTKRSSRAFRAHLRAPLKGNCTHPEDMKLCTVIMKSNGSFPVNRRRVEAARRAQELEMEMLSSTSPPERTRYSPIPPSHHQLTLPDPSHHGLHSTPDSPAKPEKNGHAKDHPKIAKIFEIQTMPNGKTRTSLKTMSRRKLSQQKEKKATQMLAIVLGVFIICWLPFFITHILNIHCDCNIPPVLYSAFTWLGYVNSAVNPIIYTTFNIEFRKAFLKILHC

In the case of `CCCCCCCC(CC(=O)O)OC(=O)CC(CCCCCCC)OC1OC(C)C(O)C(O)C1OC1OC(C)C(O)C(O)C1O` (centres unmarked) [Di-rhamnolipid W3CTS], the “immunorestoration activity (survival of 30 percent or more considered significant)” value (C. albicans) is reported as “possible very significant immunorestoration activity”, the LD50 at 14 day (in vivo) is reported as 135 mg/kg and the MTD at 14 day (in vivo) is reported as 120 mg/kg. For the same compound, the “gross abnormalities at necropsy” value [1] was “no gross abnormalities”, the “tail finding, higher dose groups” value [1] was “scabbing and necrosis of tails” and the increase of monocytes (female and male mice; after 4th day and 29th) was “up to 100%”. The “increase of neutrophils in blood” value (female and male mice; after 29 days) was 43.61%, the decrease of lymphocytes (female and male mice; fourth day) was 24.15% and the “increase of neutrophils in blood” value (female and male mice; fourth day) was 51.77%. The decrease of lymphocytes (female and male mice; twenty nine days) was 24.60%, the “Immunostimulation (cellular)” value (female ICR mice) was “negative” and the “decrease in inflammation (overall)” value ([2]; 1 mg/ml topical, maximal effect) was “up to 32%”. The topical anti-inflammatory efficacy ([2]; 1 mg/ml, 1.0% w/v, single topical administration, 24 hours time-course) was “effective as a topical therapeutic anti-inflammatory agent”, the “inhibition of inflammation, concurrent treatment” value ([2]; at 6 hours) was “about 32%” and the “reversal of established inflammation, post treatment” value ([2]; at 11 hours, given 2 hours after induction) was 32%. The “protective effect, pretreatment” value ([2]; given one hour prior to induced inflammation) was “short duration as a protective agent”, the inhibition at 100 µM [3] was 53% and the “Inhibition of LTC4 synthetase” value [4] was 81%. For the same compound, the “effect on B-cell proliferation” value ([5]; 10 μM in 0.5% DMSO, without LPS) was “did not have any effect” and the inhibition at 10 µM ([5]; Mus musculus, B-cell, 10 μM, in the presence of LPS) was at most 54%.
